The source made the active and inactive calls.
Assays:
[1] = biological target: C-C chemokine receptor type 6 (Homo sapiens, UniProt P51684); assay: antagonism of CCR6 beta-arrestin recruitment – cell-based, luminescent beta-arrestin readout, dose response (AID 504728); type: functional
Beta-galactosidase = Beta-galactosidase (Escherichia coli, UniProt Q8VNN2); assay: detection-enzyme interference by beta-gal modulators – biochemical, E. coli enzyme, set 3, artefact control for CCR6 antagonist project, dose response (AID 504712); type: functional
[2] = biological target: T1, Replicative DNA helicase DnaB (Mycobacterium tuberculosis, UniProt P9WMR3); assay: DnaB intein splicing inhibitors, dose response, biochemical, cell-free fluorescence (AID 449749); type: functional
T1 sequence (P9WMR3 whole entry): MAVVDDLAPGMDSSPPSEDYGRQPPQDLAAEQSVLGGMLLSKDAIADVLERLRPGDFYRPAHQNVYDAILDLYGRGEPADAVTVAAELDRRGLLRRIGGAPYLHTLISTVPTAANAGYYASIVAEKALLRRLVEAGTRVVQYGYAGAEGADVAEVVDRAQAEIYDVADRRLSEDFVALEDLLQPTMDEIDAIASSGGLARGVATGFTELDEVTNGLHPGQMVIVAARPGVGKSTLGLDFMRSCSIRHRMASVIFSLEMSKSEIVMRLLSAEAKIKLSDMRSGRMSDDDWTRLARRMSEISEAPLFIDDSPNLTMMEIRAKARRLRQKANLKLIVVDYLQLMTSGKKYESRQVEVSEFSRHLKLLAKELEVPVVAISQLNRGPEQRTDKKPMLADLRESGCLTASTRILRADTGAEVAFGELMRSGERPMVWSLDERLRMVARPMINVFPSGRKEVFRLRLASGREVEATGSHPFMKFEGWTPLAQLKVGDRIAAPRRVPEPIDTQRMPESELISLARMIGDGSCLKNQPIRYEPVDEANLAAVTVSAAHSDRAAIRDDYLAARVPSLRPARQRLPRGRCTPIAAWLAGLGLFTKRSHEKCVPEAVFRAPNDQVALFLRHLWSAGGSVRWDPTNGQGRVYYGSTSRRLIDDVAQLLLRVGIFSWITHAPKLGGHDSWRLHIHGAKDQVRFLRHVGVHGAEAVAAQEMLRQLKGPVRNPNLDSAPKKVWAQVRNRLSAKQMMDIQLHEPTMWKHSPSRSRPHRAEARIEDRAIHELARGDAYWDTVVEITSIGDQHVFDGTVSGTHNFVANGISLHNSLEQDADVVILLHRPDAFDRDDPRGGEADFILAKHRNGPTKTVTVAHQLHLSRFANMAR

Genome polyprotein = Genome polyprotein (dengue virus type 2, UniProt P29990); assay: flavivirus cap methylation enzyme inhibition – biochemical, confirmation dose response, primary screen (AID 588689); type: functional
Sequence of Genome polyprotein (P29990 2492-3391 limits assumed): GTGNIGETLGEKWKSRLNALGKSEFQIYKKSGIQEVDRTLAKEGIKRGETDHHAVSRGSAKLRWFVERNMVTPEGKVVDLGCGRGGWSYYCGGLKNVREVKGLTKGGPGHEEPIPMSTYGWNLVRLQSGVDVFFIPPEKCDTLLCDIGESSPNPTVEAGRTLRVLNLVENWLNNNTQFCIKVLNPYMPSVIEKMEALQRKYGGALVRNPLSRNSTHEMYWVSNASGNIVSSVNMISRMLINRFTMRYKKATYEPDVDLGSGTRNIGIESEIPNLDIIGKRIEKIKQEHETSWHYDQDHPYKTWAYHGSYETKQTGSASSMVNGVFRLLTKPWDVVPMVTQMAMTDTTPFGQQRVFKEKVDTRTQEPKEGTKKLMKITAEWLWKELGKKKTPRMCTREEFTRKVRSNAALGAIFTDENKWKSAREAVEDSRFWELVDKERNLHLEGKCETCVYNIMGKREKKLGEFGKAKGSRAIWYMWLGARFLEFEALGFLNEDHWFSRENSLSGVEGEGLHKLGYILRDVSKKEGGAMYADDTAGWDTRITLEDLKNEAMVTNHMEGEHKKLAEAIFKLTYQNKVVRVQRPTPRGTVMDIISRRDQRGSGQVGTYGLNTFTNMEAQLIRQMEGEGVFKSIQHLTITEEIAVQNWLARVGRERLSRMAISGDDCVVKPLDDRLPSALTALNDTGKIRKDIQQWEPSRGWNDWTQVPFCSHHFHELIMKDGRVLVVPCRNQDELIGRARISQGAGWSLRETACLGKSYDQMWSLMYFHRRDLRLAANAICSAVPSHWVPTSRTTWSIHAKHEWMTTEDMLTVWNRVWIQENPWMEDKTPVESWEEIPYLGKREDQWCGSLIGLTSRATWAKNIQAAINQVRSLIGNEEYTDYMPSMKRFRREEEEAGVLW

Protein RecA = biological target: T2, Protein RecA (Mycobacterium tuberculosis, UniProt P9WHJ3); assay: Fluorescence Cell-Free Homogeneous Dose Retest to Identify Inhibitors of RecA-Intein Splicing Activity. [Related pubchem assays (depositor defined):AID2097, AID2223, AID489010, AID492950]; type: functional
T2 sequence (P9WHJ3 whole entry): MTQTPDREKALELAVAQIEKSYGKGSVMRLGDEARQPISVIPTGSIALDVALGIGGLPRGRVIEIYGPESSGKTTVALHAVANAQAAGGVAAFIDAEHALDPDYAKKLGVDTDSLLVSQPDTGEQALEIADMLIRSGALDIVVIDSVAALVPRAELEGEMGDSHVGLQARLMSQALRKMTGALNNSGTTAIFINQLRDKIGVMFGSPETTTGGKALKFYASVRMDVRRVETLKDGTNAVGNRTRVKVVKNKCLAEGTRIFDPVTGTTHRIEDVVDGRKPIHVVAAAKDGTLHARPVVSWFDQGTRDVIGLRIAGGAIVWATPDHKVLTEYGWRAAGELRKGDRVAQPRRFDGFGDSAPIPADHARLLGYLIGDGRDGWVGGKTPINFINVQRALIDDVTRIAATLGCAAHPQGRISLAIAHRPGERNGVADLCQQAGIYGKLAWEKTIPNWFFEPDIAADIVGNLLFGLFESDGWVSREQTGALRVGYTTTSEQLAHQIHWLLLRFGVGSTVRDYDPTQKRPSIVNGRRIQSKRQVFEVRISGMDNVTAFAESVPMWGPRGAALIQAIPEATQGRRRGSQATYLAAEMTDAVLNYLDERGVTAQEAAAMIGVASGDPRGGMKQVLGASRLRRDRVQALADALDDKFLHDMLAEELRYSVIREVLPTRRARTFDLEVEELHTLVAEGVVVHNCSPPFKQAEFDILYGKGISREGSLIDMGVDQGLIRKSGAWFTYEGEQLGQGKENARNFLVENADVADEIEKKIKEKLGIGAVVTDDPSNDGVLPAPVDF

[3] = protection from phage-mediated lysis, alamar blue read-out – E. coli UTI89, K1F phage, bacterial capsule biogenesis inhibitors (AID 488966); type: functional
[4] = biological target: T3, Voltage-gated N-type calcium channel alpha-1B subunit/Amyloid beta A4 precursor protein-binding family A member 1 (Homo sapiens, UniProt Q00975+Q02410); assay: disruptors of Mint-PDZ/N-type channel peptide interaction – biochemical, HTRF, set 2, SAR follow-up (AID 434980); type: functional
T3 sequence (Q00975 whole entry): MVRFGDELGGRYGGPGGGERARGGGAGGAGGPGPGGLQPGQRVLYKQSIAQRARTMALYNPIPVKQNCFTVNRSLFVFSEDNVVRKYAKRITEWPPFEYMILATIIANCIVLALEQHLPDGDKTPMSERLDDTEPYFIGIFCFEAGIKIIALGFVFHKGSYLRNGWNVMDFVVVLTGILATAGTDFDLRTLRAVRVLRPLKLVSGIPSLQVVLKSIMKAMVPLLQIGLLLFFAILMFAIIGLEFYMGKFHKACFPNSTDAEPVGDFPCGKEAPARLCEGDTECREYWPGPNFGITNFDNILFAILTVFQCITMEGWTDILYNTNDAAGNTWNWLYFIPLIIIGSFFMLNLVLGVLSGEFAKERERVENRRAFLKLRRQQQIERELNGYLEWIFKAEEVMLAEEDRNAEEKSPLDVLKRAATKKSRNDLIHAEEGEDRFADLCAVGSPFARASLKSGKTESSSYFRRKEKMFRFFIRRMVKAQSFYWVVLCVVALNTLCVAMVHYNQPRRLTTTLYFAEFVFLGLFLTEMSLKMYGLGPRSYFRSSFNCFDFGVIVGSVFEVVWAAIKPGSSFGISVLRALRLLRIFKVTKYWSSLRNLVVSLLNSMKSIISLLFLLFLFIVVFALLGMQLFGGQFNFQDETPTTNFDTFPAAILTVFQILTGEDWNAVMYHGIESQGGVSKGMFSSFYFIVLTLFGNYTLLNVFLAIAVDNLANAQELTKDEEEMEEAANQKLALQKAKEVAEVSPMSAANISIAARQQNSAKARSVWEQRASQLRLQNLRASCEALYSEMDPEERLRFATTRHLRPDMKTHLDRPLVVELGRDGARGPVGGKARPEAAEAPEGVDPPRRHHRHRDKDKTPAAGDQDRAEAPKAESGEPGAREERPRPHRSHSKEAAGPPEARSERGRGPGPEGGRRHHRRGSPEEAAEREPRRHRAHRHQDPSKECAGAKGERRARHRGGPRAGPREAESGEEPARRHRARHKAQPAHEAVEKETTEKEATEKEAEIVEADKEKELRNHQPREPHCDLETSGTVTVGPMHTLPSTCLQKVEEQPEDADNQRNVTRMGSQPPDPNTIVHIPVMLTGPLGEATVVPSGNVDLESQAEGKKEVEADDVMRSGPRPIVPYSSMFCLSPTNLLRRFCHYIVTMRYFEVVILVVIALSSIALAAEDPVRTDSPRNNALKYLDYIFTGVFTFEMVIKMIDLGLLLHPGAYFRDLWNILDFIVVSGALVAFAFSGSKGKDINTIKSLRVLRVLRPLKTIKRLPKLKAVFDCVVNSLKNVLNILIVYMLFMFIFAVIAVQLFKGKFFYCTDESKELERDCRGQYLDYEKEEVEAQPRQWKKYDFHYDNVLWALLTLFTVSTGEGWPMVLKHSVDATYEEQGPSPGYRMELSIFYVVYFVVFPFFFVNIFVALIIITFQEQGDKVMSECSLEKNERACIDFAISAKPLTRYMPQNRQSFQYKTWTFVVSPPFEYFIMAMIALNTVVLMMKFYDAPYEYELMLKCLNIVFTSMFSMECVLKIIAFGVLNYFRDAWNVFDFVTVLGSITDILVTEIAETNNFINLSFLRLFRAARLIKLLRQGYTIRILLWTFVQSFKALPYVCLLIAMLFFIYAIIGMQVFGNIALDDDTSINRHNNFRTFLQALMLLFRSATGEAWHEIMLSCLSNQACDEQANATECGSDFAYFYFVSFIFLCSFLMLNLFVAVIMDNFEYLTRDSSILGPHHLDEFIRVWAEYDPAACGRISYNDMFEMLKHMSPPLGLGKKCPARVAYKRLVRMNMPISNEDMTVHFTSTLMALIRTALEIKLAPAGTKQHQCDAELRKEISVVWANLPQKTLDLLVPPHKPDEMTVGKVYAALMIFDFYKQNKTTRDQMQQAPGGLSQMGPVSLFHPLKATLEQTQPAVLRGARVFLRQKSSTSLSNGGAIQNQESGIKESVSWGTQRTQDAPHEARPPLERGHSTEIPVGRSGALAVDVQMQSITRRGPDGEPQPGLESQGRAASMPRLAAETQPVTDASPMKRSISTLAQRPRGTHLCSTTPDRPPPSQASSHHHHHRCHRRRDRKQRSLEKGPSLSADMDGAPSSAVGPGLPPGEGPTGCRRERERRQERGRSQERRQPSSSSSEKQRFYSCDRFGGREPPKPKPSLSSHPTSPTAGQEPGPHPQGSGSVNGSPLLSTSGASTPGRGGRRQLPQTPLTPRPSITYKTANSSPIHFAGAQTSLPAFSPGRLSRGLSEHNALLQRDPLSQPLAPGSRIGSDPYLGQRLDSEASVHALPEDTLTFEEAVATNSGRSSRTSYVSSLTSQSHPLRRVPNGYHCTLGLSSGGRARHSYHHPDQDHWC
T3 sequence (Q02410 whole entry): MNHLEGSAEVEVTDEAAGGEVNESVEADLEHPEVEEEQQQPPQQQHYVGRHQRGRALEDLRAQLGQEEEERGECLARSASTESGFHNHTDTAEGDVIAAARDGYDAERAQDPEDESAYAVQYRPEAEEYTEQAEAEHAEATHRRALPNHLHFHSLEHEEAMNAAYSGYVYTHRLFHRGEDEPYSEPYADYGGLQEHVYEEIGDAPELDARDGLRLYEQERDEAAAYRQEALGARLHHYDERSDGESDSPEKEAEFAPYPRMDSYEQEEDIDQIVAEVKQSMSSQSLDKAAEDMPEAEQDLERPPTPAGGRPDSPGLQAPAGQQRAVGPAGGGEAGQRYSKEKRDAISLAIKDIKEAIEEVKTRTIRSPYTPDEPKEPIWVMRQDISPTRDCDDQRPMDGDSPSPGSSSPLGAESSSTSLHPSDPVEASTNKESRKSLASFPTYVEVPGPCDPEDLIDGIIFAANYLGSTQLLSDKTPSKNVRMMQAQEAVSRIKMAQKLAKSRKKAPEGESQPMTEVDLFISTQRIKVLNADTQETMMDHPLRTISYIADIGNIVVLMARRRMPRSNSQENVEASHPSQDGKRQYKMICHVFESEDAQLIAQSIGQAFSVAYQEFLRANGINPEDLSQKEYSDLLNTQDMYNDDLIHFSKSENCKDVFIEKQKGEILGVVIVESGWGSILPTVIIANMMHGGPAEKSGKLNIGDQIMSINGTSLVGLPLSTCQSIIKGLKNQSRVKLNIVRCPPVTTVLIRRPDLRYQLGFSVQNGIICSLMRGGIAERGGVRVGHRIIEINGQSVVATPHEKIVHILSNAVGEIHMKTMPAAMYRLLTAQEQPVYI

[5] = biological target: T3, Voltage-gated N-type calcium channel alpha-1B subunit/Amyloid beta A4 precursor protein-binding family A member 1; assay: disruptors of Mint-PDZ/N-type channel peptide interaction – biochemical, HTRF, SAR follow-up (AID 2489); type: functional
[6] = biological target: T4, Polyadenylate-binding protein 1 (Homo sapiens, UniProt P11940); assay: MLLE binding blockers, Cy5 peptide tracer – biochemical, fluorescence polarization, Cy5-PAM2 peptide, secondary, miRNA deadenylation inhibitor project, dose response (AID 602260); type: functional; details: read-out: IC50_Mean
T4 sequence (P11940 whole entry, the tested form may be a part): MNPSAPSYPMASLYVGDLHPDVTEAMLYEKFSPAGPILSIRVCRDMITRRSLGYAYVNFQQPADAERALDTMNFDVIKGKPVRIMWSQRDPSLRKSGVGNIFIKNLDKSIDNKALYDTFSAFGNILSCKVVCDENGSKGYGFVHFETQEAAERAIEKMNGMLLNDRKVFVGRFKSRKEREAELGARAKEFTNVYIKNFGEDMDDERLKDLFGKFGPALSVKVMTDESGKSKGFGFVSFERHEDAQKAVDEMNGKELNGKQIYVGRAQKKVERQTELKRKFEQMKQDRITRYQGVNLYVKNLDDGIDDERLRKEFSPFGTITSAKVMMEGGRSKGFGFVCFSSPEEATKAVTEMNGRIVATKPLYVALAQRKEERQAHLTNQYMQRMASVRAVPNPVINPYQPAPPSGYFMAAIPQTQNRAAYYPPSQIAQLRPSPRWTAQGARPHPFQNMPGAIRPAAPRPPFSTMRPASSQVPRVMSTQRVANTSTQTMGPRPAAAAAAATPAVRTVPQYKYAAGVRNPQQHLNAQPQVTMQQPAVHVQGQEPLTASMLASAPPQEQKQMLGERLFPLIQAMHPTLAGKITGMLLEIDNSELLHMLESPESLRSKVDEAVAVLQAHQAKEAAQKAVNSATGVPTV

[7] = biological target: T4, Polyadenylate-binding protein 1; assay: MLLE domain peptide-binding blockers, IC50 – biochemical, fluorescence polarization, FITC-PAM2 peptide, dose response (AID 602259); type: functional; details: read-out: IC50_Mean
[8] = biological target: Female germline-specific tumor suppressor gld-1 (Caenorhabditis elegans, UniProt Q17339); assay: blockers of GLD-1/TGE RNA complex formation – biochemical, fluorescence polarization, C. elegans, dose response (AID 2802);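 also: fluorescence polarization of labeled TGE RNA bound by purified gld-1 protein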
Protein Rev = Protein Rev (Human immunodeficiency virus type 1 group M subtype B (isolate HXB2)(HIV-1), UniProt P04618); assay: blockers of HIV Rev/RRE RNA complex – biochemical, fluorescence polarization, HIV-1, dose response (AID 434976); parameters: species or system Human immunodeficiency virus 1
Cytochrome P450 2C19 = Cytochrome P450 2C19 (Homo sapiens, UniProt P33261); assay: Cytochrome panel assay with activity outcomes. Panel member name: p450-cyp2c19 Compounds with AC50 equal or less than 10 uM are considered active; type: functional

Sequence of C-C chemokine receptor type 6 (P51684 whole entry): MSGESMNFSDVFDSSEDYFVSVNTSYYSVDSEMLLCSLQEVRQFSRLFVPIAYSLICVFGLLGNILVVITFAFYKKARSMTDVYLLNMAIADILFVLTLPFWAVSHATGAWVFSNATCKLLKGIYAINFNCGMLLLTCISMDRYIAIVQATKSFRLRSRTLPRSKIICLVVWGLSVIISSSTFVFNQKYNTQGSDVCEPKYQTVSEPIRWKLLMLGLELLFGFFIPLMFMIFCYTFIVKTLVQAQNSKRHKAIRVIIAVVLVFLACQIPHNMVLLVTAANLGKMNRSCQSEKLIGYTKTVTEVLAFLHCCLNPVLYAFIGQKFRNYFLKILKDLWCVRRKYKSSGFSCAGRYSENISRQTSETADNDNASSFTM

## O=C(Nc1nnc(C2CC2)s1)c1cc([N+](=O)[O-])ccc1N1CCCCC1
[1]
  IC50: > 66.6 µM (inactive)
Beta-galactosidase
  IC50: > 66.6 µM (inactive)

## N=C1/C(=C\c2ccc(OC(=O)c3ccc(F)cc3)cc2)C(=O)N=C2SC(N3CCOCC3)=NN12
[2]
  AC50: 22.4 µM (active)
Genome polyprotein
  IC50: 19.2 µM (active)
Protein RecA
  EC50: 17.1 µM (active)
[3]
  IC50: > 75 µM (active)

## O=C(c1cc(-c2ccco2)nc2ccccc12)N1CCN(c2ccccc2)CC1
[4]
  IC50: > 56.8 µM (inactive)
[5]
  IC50: > 56.8 µM (inactive)

## O=c1nc2[nH]c3ccccc3nc-2c(=O)[nH]1 [ALLOXAZINE]
[6]
  IC50: > 66 µM (inactive)
[7]
  IC50: 35.8 µM (inactive)
[8]
  IC50: 1.47 µM (active)
Protein Rev
  IC50: 12.4 µM (not active)
Cytochrome P450 2C19
  AC50: inconclusive

— ChEMBL document CHEMBL1201862, “PubChem BioAssay data set” (2004)
